ChEMBL document CHEMBL6178021, “Optimization of Tambjamines Active against Multiple Stages of Malaria Parasites” (J Med Chem, 2025)
In brackets after ≈: the same amount, converted by molar mass. Activity calls are given as the source filed them. The rule behind the calls is not given here.

What was measured:
[1] = Metabolic stability in human liver microsomes assessed as half life measured up to 60 mins by LC/MS analysis; type: ADME, Microsome
[2] = system: Plasmodium falciparum; assay: microbe, parasite or virus in culture; conditions: Dd2, 72 h
Description: Antiplasmodial activity against asexual blood-stage Plasmodium falciparum Dd2 using 2% haematocrit and 0.2% parasitemia assessed as reduction in fluorescence measured after 72 hrs by Malaria SYBR Green I-based Fluorescence (MSF) assay

[3] = system: Plasmodium falciparum; assay: Antiplasmodial activity against asexual blood-stage Plasmodium falciparum Tm90-C2B using 2% haematocrit and 0.2% parasitemia assessed as reduction in fluorescence measured after 72 hrs by Malaria SYBR Green I-based Fluorescence (MSF) assay; type: functional, organism-based
[4] = system: Plasmodium yoelii; assay: Antimalarial activity against erythrocytic Plasmodium yoelii MRA-428 infected in CF1 mouse assessed as reduction in parasitemia at 10 mg/kg, po once daily for 4 days measured on day 5; type: functional; parameters: scale not given: the % may be the effect or the level left; conditions: time 4 day
[5] = (§1) Apparent permeability across apical to basolateral side in MDCK transfected with human MDR1 cells incubated for 1 hr by LC-MS analysis; conditions: dog, mdck, 1 h
[6] = (§2) Apparent permeability across basolateral to apical side in MDCK transfected with human MDR1 cells incubated for 1 hr by LC-MS analysis; conditions: dog, mdck, 1 h
[7] = Solubility of the compound in potassium phosphate buffer at pH 7.4 by UV-vis spectroscopy
[8] = in vitro; conditions: mouse, liver microsomes
[9] = system: Plasmodium falciparum; assay: microbe, parasite or virus in culture; conditions: D6, 72 h
Description: Antiplasmodial activity against asexual blood-stage Plasmodium falciparum D6 using 2% haematocrit and 0.2% parasitemia assessed as reduction in fluorescence measured after 72 hrs by Malaria SYBR Green I-based Fluorescence (MSF) assay

[10] = system: Plasmodium yoelii; assay: Antimalarial activity against erythrocytic Plasmodium yoelii MRA-428 infected in CF1 mouse assessed as reduction in parasitemia at 25 mg/kg, po once daily for 4 days measured on day 5; type: functional; parameters: scale not given: the % may be the effect or the level left; conditions: time 4 day
[11] = in vitro; conditions: human, liver microsomes
[12] = Metabolic stability in mouse liver microsomes assessed as half life measured up to 60 mins by LC/MS analysis; type: ADME, Microsome
[13] = system: HepG2; assay: (§3) Cytotoxicity against human HepG2 cells assessed as cell viability measured after 48 hrs by MTT assay; type: toxicity, cell-based; conditions: hepg2
[14] = in vitro; conditions: human
Description: Selectivity index, ratio of IC50 for cytotoxicity against human HepG2 cells to IC50 for antiplasmodial activity against asexual blood-stage Plasmodium falciparum D6

[15] = system: Plasmodium berghei; assay: Anti-malarial activity against Luciferase-expressing Plasmodium berghei sporozoites inoculated in po dosed Albino C57BL/6 mouse malaria model assessed as elimination of parasites in liver by measuring bioluminescence signal measured after 48 hrs; type: functional, organism-based
[16] = system: Plasmodium yoelii; assay: Antimalarial activity against erythrocytic Plasmodium yoelii MRA-428 infected in CF1 mouse assessed as cured mouse at 50 mg/kg, po once daily for 4 days measured on day 28 day; type: functional, organism-based; conditions: time 4.0 day
[17] = system: Plasmodium yoelii; assay: Antimalarial activity against erythrocytic Plasmodium yoelii MRA-428 infected in CF1 mouse assessed as cured mouse at 25 mg/kg, po once daily for 4 days measured on day 28 day; type: functional, organism-based; conditions: time 4.0 day
[18] = system: Plasmodium berghei; assay: Anti-malarial activity against Luciferase-expressing Plasmodium berghei sporozoites inoculated in po dosed Albino C57BL/6 mouse malaria model assessed as elimination of parasites in blood by measuring bioluminescence signal measured after 72 hrs; type: functional, organism-based
[19] = system: Plasmodium yoelii; assay: Antimalarial activity against erythrocytic Plasmodium yoelii MRA-428 infected in CF1 mouse assessed as reduction in parasitemia at 50 mg/kg, po once daily for 4 days measured on day 5; type: functional; parameters: scale not given: the % may be the effect or the level left; conditions: time 4 day
[20] = system: Plasmodium yoelii; assay: Antimalarial activity against erythrocytic Plasmodium yoelii MRA-428 infected in CF1 mouse assessed as reduction in parasitemia at 80 mg/kg, po once daily for 4 days measured on day 5; type: functional; parameters: scale not given: the % may be the effect or the level left; conditions: time 4 day
[21] = system: Plasmodium yoelii; assay: Antimalarial activity against erythrocytic Plasmodium yoelii MRA-428 infected in CF1 mouse assessed as cured mouse at 80 mg/kg, po once daily for 4 days measured on day 28 day; type: functional, organism-based; conditions: time 4.0 day
[22] = system: Plasmodium yoelii; assay: Antimalarial activity against erythrocytic Plasmodium yoelii MRA-428 infected in CF1 mouse assessed as cured mouse at 10 mg/kg, po once daily for 4 days measured on day 28 day; type: functional, organism-based; conditions: time 4.0 day
[23] = as §3; type: toxicity, cell-based; conditions: human, HepG2 cells
[24] = system: MDR1 (human); assay: as §1; conditions: dog, MDCK-MDR1
[25] = system: MDR1 (human); assay: as §2; conditions: dog, MDCK-MDR1
[26] = system: MDR1 (human); assay: Efflux ratio, ratio of apparent permeability across apical to basolateral side over basolateral to apical side in MDCK transfected with human MDR1 cells incubated for 1 hr by LC-MS analysis; conditions: dog
[27] = system: Plasmodium falciparum; assay: Anti-plasmodial activity against Plasmodium falciparum 3D7 infected in erythrocytes assessed as parasite reduction ratio at 0.27 uM measured 22 to 28 days; type: functional; conditions: time 22-28 day
[28] = system: Plasmodium falciparum; assay: Anti-plasmodial activity against Plasmodium falciparum 3D7 infected in erythrocytes assessed as parasite clearance time at 0.27 uM measured 22 to 28 days relative to initial population; type: functional; conditions: time 22-28 day
[29] = system: Plasmodium falciparum; assay: Anti-plasmodial activity against Plasmodium falciparum 3D7 infected in erythrocytes assessed as Lag phase (time to observe the maximal killing effect of the drug) at 0.27 uM; type: functional

Compound	half-life [1]	IC50 [2]	IC50 [3]	Activity [4]	Papp [5]	solubility ([7]; buffer)	microsomal CLint at 1 h [8]	IC50 [9]	Activity [10]	microsomal CLint at 1 h [11]	half-life [12]	IC50 [13]	selectivity ratio [14]	Activity [16]	Activity [17]	Activity [19]	IC50 at 48 h [23]	further results
CCC1=C(CC)/C(=C/NC2CCCCC2)N=C1c1ccc(Cc2ccc(OC)cc2)[nH]1	> 60 min	7.25 nM	11.6 nM	0%	0.15 ×10⁻⁶ cm/s	14.4 µM (≈ 6.01 µg/mL)	1.94 µL/min/mg	9.26 nM	0%	3.37 µL/min/mg	> 60 min	7.81 µM						Papp [6]: 0.43 ×10⁻⁶ cm/s
[2H]C([2H])(C)c1ccc(C2=N/C(=C\NC3CCCCCC3)C(C)=C2C)[nH]1	> 60 min	5.91 nM	10.1 nM	78.5%	0.29 10^-6 cm/s	42 µM (≈ 13.2 µg/mL)	16 µL/min/mg	5.08 nM	96.5%	14 µL/min/mg	> 60 min	6.55 µM						Papp [6]: 0.007 10^-6 cm/s
CCC1=C(CC)/C(=C/NC2CCCCCC2)N=C1c1ccc(Cc2ccc(OC)cc2)[nH]1	> 60 min	8.42 nM	16.3 nM	0%	0.18 ×10⁻⁶ cm/s	20.5 µM (≈ 8.85 µg/mL)	2.27 µL/min/mg	9.93 nM	0%	2.23 µL/min/mg	> 60 min	4.34 µM						
CCC1=C(C)/C(=C/NC2CCCCCC2)N=C1c1ccc[nH]1	17.7 min	55.5 nM	37.6 nM	100%				62.2 nM	100%		10.1 min		309	Active; Four Mouse Cured Out Of Four	Active; Four Mouse Cured Out Of Four	100%	19.2 µM	Activity [15]: inactive; Activity [18]: inactive; Activity [20]: 100%; Activity [21]: Active; Two Mouse Cured Out Of Four; Activity [22]: Not active; None Of The Mouse Cured Out Of Four Tested
CCC1=C(CC)/C(=C/NC23C[C@H]4C[C@@H](C2)C[C@@H](C3)C4)N=C1c1ccc(C)[nH]1	34.9 min	0.823 nM	1.01 nM	100%		10.9 µM (≈ 3.96 µg/mL)	13.8 µL/min/mg	0.934 nM	100%	39.7 µL/min/mg	> 60 min	2.45 µM	2620	Active; Two Mouse Cured Out Of Four	Not active; None Of The Mouse Cured Out Of Four Tested	100%		Papp A→B at 1 h [24]: 0.027 ×10⁻⁶ cm/s; Papp B→A at 1 h [25]: 0.006 ×10⁻⁶ cm/s; efflux ratio at 1 h [26]: 0.24; Activity [22]: Not active; None Of The Mouse Cured Out Of Four Tested
CCC1=C(CC)/C(=C/NC23CC4CC(CC(C4)C2)C3)N=C1c1ccc[nH]1	> 60 min	1.01 nM		82.5%				1.6 nM	100%		16 min		2440	Active; Three Mouse Cured Out Of Four	Active; Three Mouse Cured Out Of Four	100%	3.9 µM	Activity [15]: Dose-dependent-effect; Activity [18]: Dose-dependent-effect; Activity [20]: 100%; Activity [21]: Active; Four Mouse Cured Out Of Four
CCC1=C(CC)/C(=C/NC23CC4CC(CC(C4)C2)C3)N=C1c1cc2ccccc2[nH]1	> 60 min	59.3 nM	410 nM		0.58 ×10⁻⁶ cm/s		28.3 µL/min/mg	70.2 nM		4.02 µL/min/mg	49.1 min		99.8				7.01 µM	solubility ([7]; potassium phosphate buffer): 11.5 µM (≈ 4.6 µg/mL); efflux ratio at 1 h [26]: 0.14
CCc1nc(N)nc(N)c1-c1ccc(Cl)cc1 [PYRIMETHAMINE]																		log(activity) [27]: 3.49; T99.9% [28]: 54 h; Time [29]: 24 h
CCc1ccc(C2=N/C(=C\NC3CCCCCC3)C3=C2CCCC3)[nH]1	> 60 min	1.36 nM	1.74 nM	22.7%	0.24 ×10⁻⁶ cm/s	15.4 µM (≈ 5.2 µg/mL)	10.3 µL/min/mg	4.8 nM	100%	8.31 µL/min/mg	> 60 min	1.06 µM		Not active; None Of The Mouse Cured Out Of Four Tested	Not active; None Of The Mouse Cured Out Of Four Tested	100%		Papp B→A at 1 h [25]: 0.003 ×10⁻⁶ cm/s
